{"source": "patent US6864244B2", "about": "“Anhydrous crystalline 1-[4(S)-azido-2(S),3(R)-dihydroxy-4-(hydroxymethyl)-1(R)-cyclopentyl]cytosine hemisulfate as useful as an antiviral agent” (Roche Palo Alto LLC, priority 2002, dated 2005)", "type_in_all_cases": "physicochemical", "key": {"[1]": {"assay": "Polymorph transformation in the presence of moisture"}, "[2]": {"assay": "Differential scanning calorimetry (DSC), thermal properties"}, "[3]": {"assay": "Hygroscopicity at 93% relative humidity (weight gain, HPLC assay)", "procedure": "(§1) A small amount of the polymorphic Form C crystal (about 10 mg) was weighed into a weighing bottle and placed in a chamber with controlled relative humidity for 4 weeks and the percentage of water absorbed was calculated form the weight gain. The sample was also assayed by HPLC against an external standard on a Waters 2690 HPLC at 276 nm with a Zorbax SB-Phenyl column. The mobile phase is a gradient run at 1 mL/min consisting of acetonitrile/water with 10 mM heptane sulfonic acid, 0.1% phosphoric acid in both. The gradient is run as 10% ACN to 100% in 30 min. The data was processed using Waters Millennium software version 3.2. The thermal stability also was determined at 60° C. and at 40° C./75% relative humidity. The purity of the sample was determined by assaying weighed aliquots by HPLC against an external standard."}, "[4]": {"assay": "Accelerating rate calorimetric (ARC) determination (adiabatic calorimetry conditions)"}, "[5]": {"assay": "Thermal stability on storage at 60° C. and at 40° C./75% relative humidity (HPLC assay against external standard)", "settings": "for ASSAY: HPLC", "procedure": "as §1"}}, "note": "Like-named read-outs stand apart in the source and are kept apart here.", "data": [{"smiles": "[N-]=[N+]=N[C@]1(CO)O[C@@H](n2ccc(N)nc2=O)[C@H](O)[C@@H]1O", "note": "[Form A of Ia]", "values": [{"measurement": "polymorphic transformation", "setting": "[1]", "result": "transformed into Form C"}, {"measurement": "exothermic decomposition onset temperature", "setting": "[2]", "result": "approximately 185 °C"}, {"measurement": "exothermic decomposition onset temperature", "setting": "[2]; listed as Form A polymorph of Ia", "result": 185, "unit": "°C"}]}, {"smiles": "[N-]=[N+]=N[C@]1(CO)O[C@@H](n2ccc(N)nc2=O)[C@H](O)[C@@H]1O", "note": "[Form B of Ia]", "values": [{"measurement": "polymorphic transformation", "setting": "[1]", "result": "transformed into Form C"}, {"measurement": "exothermic decomposition onset temperature", "setting": "[2]", "result": "approximately 189 °C"}, {"measurement": "exothermic decomposition onset temperature", "setting": "[2]; listed as Form B polymorph of Ia", "result": 189, "unit": "°C"}]}, {"smiles": "[N-]=[N+]=N[C@]1(CO)O[C@@H](n2ccc(N)nc2=O)[C@H](O)[C@@H]1O", "note": "[Form C of Ia]", "values": [{"measurement": "APPEARANCE", "setting": "[3]; 93% RH, 4 weeks", "result": "white powder"}, {"measurement": "POLYMORPH", "setting": "[3]; 93% RH, 4 weeks", "result": "Form C"}, {"measurement": "WEIGHT GAIN", "setting": "[3]; 93% RH, 4 weeks", "result": 0, "unit": "%"}, {"measurement": "ASSAY", "setting": "[3]; 93% RH, 4 weeks, HPLC", "result": 99.9}, {"measurement": "hygroscopicity", "setting": "[3]; 93% relative humidity, 4 weeks", "result": "not hygroscopic"}, {"measurement": "Adiabatic Temperature Rise", "setting": "[4]", "result": 265, "unit": "°C"}, {"measurement": "corrected exothermic decomposition onset temperature", "setting": "[4]", "result": 152, "unit": "°C"}, {"measurement": "enthalpy of decomposition exotherm", "setting": "[4]", "result": -132, "unit": "cal/g"}, {"measurement": "APPEARANCE", "setting": "[5]; 40° C./75% RH, 1 week", "result": "white powder"}, {"measurement": "POLYMORPH", "setting": "[5]; 40° C./75% RH, 1 week", "result": "Form C"}, {"measurement": "ASSAY", "setting": "[5]; 40° C./75% RH, 1 week", "result": 99.9}, {"measurement": "APPEARANCE", "setting": "[5]; 40° C./75% RH, 2 weeks", "result": "white powder"}, {"measurement": "ASSAY", "setting": "[5]; 40° C./75% RH, 2 weeks", "result": 99.9}, {"measurement": "APPEARANCE", "setting": "[5]; 40° C./75% RH, 4 weeks", "result": "white powder"}, {"measurement": "POLYMORPH", "setting": "[5]; 40° C./75% RH, 4 weeks", "result": "Form C"}, {"measurement": "ASSAY", "setting": "[5]; 40° C./75% RH, 4 weeks", "result": 99.9}, {"measurement": "APPEARANCE", "setting": "[5]; 60° C., 1 week", "result": "white powder"}, {"measurement": "POLYMORPH", "setting": "[5]; 60° C., 1 week", "result": "Form C"}, {"measurement": "ASSAY", "setting": "[5]; 60° C., 1 week", "result": 99.9}, {"measurement": "APPEARANCE", "setting": "[5]; 60° C., 2 weeks", "result": "white powder"}, {"measurement": "ASSAY", "setting": "[5]; 60° C., 2 weeks", "result": 99.9}, {"measurement": "APPEARANCE", "setting": "[5]; 60° C., 4 weeks", "result": "white powder"}, {"measurement": "POLYMORPH", "setting": "[5]; 60° C., 4 weeks", "result": "Form C"}, {"measurement": "ASSAY", "setting": "[5]; 60° C., 4 weeks", "result": 99.9}, {"measurement": "thermal stability", "setting": "[5]; at 40 and 60° C. over the duration of the assay", "result": "thermal stable"}, {"measurement": "exothermic decomposition onset temperature", "setting": "[2]", "result": "approximately 210 °C"}, {"measurement": "exothermic decomposition onset temperature", "setting": "[2]; listed as Form C polymorph of Ia", "result": 210, "unit": "°C"}]}, {"smiles": "[N-]=[N+]=N[C@]1(CO)O[C@@H](n2ccc(N)nc2=O)[C@H](O)[C@@H]1O", "note": "[Ia]", "values": [{"measurement": "hygroscopicity relative to the free base", "setting": "[3]", "result": "less hygroscopic than the free base"}, {"measurement": "weight gain on storage", "setting": "[3]; stored at high relative humidity", "result": "No weight gain"}]}]}
